IC50 and EC50 data for 22 compounds are collected here from patent US10858366B2 (priority 2016, dated 2020).

Broadly, the IC50 is the concentration that gives 50% inhibition. The term EC50 denotes the midpoint of the concentration-response curve. Higher therefore signals a less potent agent.

Assay [1] concerns the target truncated Influenza A/victoria/75 PA(1-209) (Influenza A virus (strain A/Victoria/3/1975 H3N2), UniProt P31343). Kind of assay: Endonuclease Inhibition Assay (PA FP Assay). The format is binding. The following applies: fluorescence polarization, fluorescein-labeled probe. On the procedure:
Endonuclease Inhibition Assay (PA FP Assay)
Compounds were dissolved and serially diluted in 100% DMSO then 0.5 μl was transferred to 384-well plates. 50 nM truncated Influenza A/victoria/75 PA(1-209) was prepared in assay buffer (20 mM Tris, pH=7.5, 10 mM MgCl2, 0.01% Tween 20, 100 mM NaCl and 1 mM DTT) and 20 ul was added to each well of assay plate with compounds, centrifuged for 1 min at 1000 rpm and incubated for 30 min at room temperature. 20 μl of 20 nM fluorescein-labeled probe [5-(4-(3-carboxy-3-oxopropanoyl)-4-(4-chlorobenzyl)piperidine-1-carbonyl)-2-(6-hydroxy-3-oxo-3H-xanthen-9-yl)benzoic acid] in assay buffer was then added, centrifuged for 1 min at 1000 rpm and incubated for 60 min at room temperature.
Fluorescence polarization was measured on Perkin Elmer Envision plate reader with excitation at 480 nm and emission at 535 nm and reported in millipolarization units (mP). IC50 values were determined relative to wells containing 125 uM of a compound known to bind to the active site of PA and uninhibited wells containing 1.25% DMSO.

Assay [2] deals with RNP_CAL (PB2, PB1, PA, NP, influenza A Luciferase reporter in 293T cells) (Influenza A virus (strain swl A/California/04/2009 H1N1), UniProt C3W5S0). Kind of assay: cell-based.

The compound `O=c1cnn2c(c1O)-c1nccn1CC2C(c1ccccc1)c1ccccc1` (centres unmarked) [Example 1, 6-Benzhydryl-11-hydroxy-5H-imidazo[2′,1′:3,4]pyrazino[1,2-b]pyridazin-10(6H)-one] came in with an IC50 in assay [1] of 50 nM. The same compound gave an EC50 in assay [2] of 110 nM.

Regarding `COCc1cnc2n1C[C@H](C(c1ccccc1)c1ccccc1)n1ccc(=O)c(O)c1-2` [Example 56, (S)-6-benzhydryl-11-hydroxy-3-(methoxymethyl)-5H-imidazo [1,2-a]pyrido[2,1-c]pyrazin-10(6H)-one], the 50% inhibitory concentration (IC50) in assay [1] amounted to 100 nM. In addition, the midpoint of the response in assay [2], the EC50, lay at 92 nM.

Take `O=c1ccn2c(c1O)-c1ncc(C3CC3)n1C[C@@H]2C(c1ccccc1)c1ccccc1` [Example 8, (S)-6-benzhydryl-3-cyclopropyl-11-hydroxy-5H-imidazo[1,2-a]pyrido[2,1-c]pyrazin-10(6H)-one]: in assay [1], the IC50 worked out at 40 nM. In assay [2], this compound displayed a concentration for a half-maximal effect (EC50) of 150 nM.

In assay [1], `O=c1ccn2c(c1O)-c1ncc(Br)n1C[C@@H]2C(c1ccccc1)c1ccccc1` [Example 7, (S)-6-benzhydryl-3-bromo-11-hydroxy-5H-imidazo[1,2-a]pyrido[2,1-c]pyrazin-10(6H)-one] showed an IC50 of 9 nM. For the same compound, the response in assay [2] was half-maximal at 170 nM (EC50).

Turning to `O=c1cnn2c(c1O)-c1nccn1C[C@@H]2C(c1cccc(F)c1)c1cccc(F)c1` [Example 23, (S)-6-(bis(3-fluorophenyl)methyl)-11-hydroxy-5,6-dihydro-10H-imidazo[2′,1′:3,4]pyrazino[1,2-b]pyridazin-10-one], the IC50 in assay [1] was 50 nM. In assay [2], this compound came in with an EC50 of 39 nM.

In the case of `N#Cc1cccc([C@H](c2ccc(F)cc2)[C@H]2Cn3ccnc3-c3c(O)c(=O)cnn32)c1` [Example 43, 3-((S)-(4-fluorophenyl)((S)-11-hydroxy-10-oxo-5,6-dihydro-10H-imidazo[2′,1′:3,4]pyrazino[1,2-b]pyridazin-6-yl)methyl)benzonitrile], the IC50 in assay [1] amounted to 20 nM. Moreover, the EC50 in assay [2] came to 39 nM.

For the compound `O=c1ccn2c(c1O)-c1ncc(Cl)n1C[C@@H]2C(c1ccccc1)c1ccccc1` [Example 5, (S)-6-Benzhydryl-3-chloro-11-hydroxy-5,6-dihydro-10H-imidazo[1,2-a]pyrido[2,1-c]pyrazin-10-one], in assay [1], the IC50 was determined as 20 nM. For the same compound, the response in assay [2] was half-maximal at 100 nM (EC50).

As for `N#Cc1cccc([C@H](c2cccc(F)c2)[C@H]2Cn3ccnc3-c3c(O)c(=O)cnn32)c1` [Example 46, 3-((R)-(3-fluorophenyl)((S)-11-hydroxy-10-oxo-5,6-dihydro-10H-imidazo[2′,1′:3,4]pyrazino[1,2-b]pyridazin-6-yl)methyl)benzonitrile], inhibition in assay [1] was half-maximal at 50 nM (IC50). Further, a half-maximal effect in assay [2] (EC50) was put at 64 nM.

Regarding `CCC1N(C(c2ccccc2)c2ccccc2)n2ccc(=O)c(O)c2-c2nccn21` (centres unmarked) [Example 78, 6-benzhydryl-5-ethyl-11-hydroxy-5,6-dihydro-10H-imidazo[1,2-d]pyrido[2,1-f][1,2,4]triazin-10-one], half-maximal inhibition in assay [1] (IC50) required 40 nM. In assay [2], this compound yielded an EC50 of 180 nM.

`O=c1ccn2c(c1O)-c1ncc(-c3cn[nH]c3)n1C[C@@H]2C(c1ccccc1)c1ccccc1` [Example 52, (S)-6-benzhydryl-11-hydroxy-3-(1H-pyrazol-4-yl)-5,6-dihydro-10H-imidazo[1,2-a]pyrido[2,1-c]pyrazin-10-one] gave an IC50 in assay [1] of 8 nM. The same compound registered a concentration for a half-maximal effect (EC50) in assay [2] of 8300 nM.

The compound `Cc1ccccc1[C@H](c1ccc(F)cc1)[C@H]1Cn2ccnc2-c2c(O)c(=O)cnn21` [Example 40, (S)-6-((S)-(4-fluorophenyl)(o-tolyl)methyl)-11-hydroxy-5,6-dihydro-10H-imidazo[2′,1′:3,4]pyrazino[1,2-b]pyridazin-10-one] registered a concentration for half-maximal inhibition (IC50) in assay [1] of 20 nM. The compound further displayed an EC50 in assay [2] of 32 nM.

In turn, `O=c1cnn2c(c1O)-c1nccn1C[C@@H]2[C@H](c1ccccc1)c1ccc(F)cc1` [Example 17, (S)-6-((R)-(4-fluorophenyl)(phenyl)methyl)-11-hydroxy-5,6-dihydro-10H-imidazo[2′,1′:3,4]pyrazino[1,2-b]pyridazin-10-one] displayed an IC50 in assay [1] of 20 nM. Besides, in assay [2], a half-maximal effect (EC50) was put at 10 nM.

In assay [1], `O=c1cnn2c(c1O)-c1nccn1C[C@@H]2[C@H](c1ccc(F)cc1)c1cncc(F)c1` [Example 19, (S)-6-((R)-(4-fluorophenyl)(5-fluoropyridin-3-yl)methyl)-11-hydroxy-5,6-dihydro-10H-imidazo[2′,1′:3,4]pyrazino[1,2-b]pyridazin-10-one] returned an IC50 of 40 nM. Besides, the EC50 in assay [2] turned out to be 260 nM.

In assay [1], `O=c1ccn2c(c1O)-c1nccn1C[C@@H]2C(c1ccccc1)c1ccccc1` [Example 4, (S)-6-Benzhydryl-11-hydroxy-5H-imidazo[1,2-a]pyrido[2,1-c]pyrazin-10(6H)-one] gave an IC50 of 10 nM. This compound came in with an EC50 in assay [2] of 160 nM.

In assay [1], `O=c1cnn2c(c1O)-c1nccn1CC2C(c1cccc(F)c1)c1cccc(F)c1` (centres unmarked) [Example 2, 6-(bis(3-fluorophenyl)methyl)-11-hydroxy-5,6-dihydro-10H-imidazo[2′,1′:3,4]pyrazino[1,2-b]pyridazin-10-one] yielded a 50% inhibitory concentration (IC50) of 70 nM. For the same compound, the response in assay [2] was half-maximal at 110 nM (EC50).

Take `O=c1cnn2c(c1O)-c1nccn1C[C@@H]2[C@H](c1ccc(F)cc1)c1ccc(F)cc1Br` [Example 39, (S)-6-((R)-(2-bromo-4-fluorophenyl)(4-fluorophenyl)methyl)-11-hydroxy-5,6-dihydro-10H-imidazo[2′,1′:3,4]pyrazino[1,2-b]pyridazin-10-one]: the IC50 in assay [1] was found to be 10 nM. The concentration giving a half-maximal response (EC50) in assay [2] was found to be 33 nM.

Turning to `O=c1cnn2c(c1O)-c1ncnn1CC2C(c1ccccc1)c1ccccc1` (centres unmarked) [Example 3, 6-benzhydryl-11-hydroxy-5,6-dihydro-10H-[1,2,4]triazolo[5′,1′:3,4]pyrazino[1,2-b]pyridazin-10-one], half-maximal inhibition in assay [1] (IC50) required 400 nM. Further, the EC50 in assay [2] stood at 1100 nM.

In the case of `Cc1nc2n(c1C)C[C@H](C(c1ccccc1)c1ccccc1)n1ccc(=O)c(O)c1-2` [Example 14, (S)-6-benzhydryl-11-hydroxy-2,3-dimethyl-5H-imidazo[1,2-a]pyrido[2,1-c]pyrazin-10(6H)-one], in assay [1], the IC50 was found to be 100 nM. This compound also returned an EC50 in assay [2] of 4200 nM.

In assay [1], `O=c1ccn2c(c1O)-c1ncc(-c3ccccc3)n1C[C@@H]2C(c1ccccc1)c1ccccc1` [Example 53, (S)-6-benzhydryl-11-hydroxy-3-phenyl-5H-imidazo [1,2-a] pyrido[2,1-c]pyrazin-10(6H)-one] had a half-inhibitory concentration (IC50) of 60 nM. This compound also showed an EC50 in assay [2] of 3000 nM.

As for `Cc1cccc([C@H](c2ccc(F)cc2)[C@H]2Cn3ccnc3-c3c(O)c(=O)cnn32)c1` [Example 38, (S)-6-((S)-(4-fluorophenyl)(m-tolyl)methyl)-11-hydroxy-5,6-dihydro-10H-imidazo[2′,1′:3,4]pyrazino[1,2-b]pyridazin-10-one], in assay [1], the IC50 came to 40 nM. In assay [2], this compound had a concentration giving a half-maximal response (EC50) of 49 nM.

With `O=c1cnn2c(c1O)-c1nccn1C[C@@H]2[C@@H](c1ccc(F)cc1)c1cccc(F)c1` [Example 24, (S)-6-((S)-(3-fluorophenyl)(4-fluorophenyl)methyl)-11-hydroxy-5,6-dihydro-10H-imidazo[2′,1′:3,4]pyrazino[1,2-b]pyridazin-10-one], half-maximal inhibition in assay [1] (IC50) required 9 nM. The compound also showed a half-maximal effective concentration (EC50) in assay [2] of 36 nM.

Consider `O=c1cnn2c(c1O)-c1nccn1C[C@@H]2[C@@H](c1ccccc1)c1ccc(F)cc1` [Example 18, (S)-6-((S)-(4-fluorophenyl)(phenyl)methyl)-11-hydroxy-5,6-dihydro-10H-imidazo[2′,1′:3,4]pyrazino[1,2-b]pyridazin-10-one], for which half-maximal inhibition in assay [1] (IC50) required 20 nM. Moreover, the EC50 in assay [2] was 130 nM.
